# In ChEMBL document CHEMBL1127459, “Synthesis and biological activity of 3-[2-(dimethylamino)ethyl]-5-[(1,1-dioxo-5-methyl-1,2,5-thiadiazolidin- 2-yl)-methyl]-1H-indole and analogues: agonists for the 5-HT1D receptor” (J Med Chem, 1994):
# Tests used:
# [1] = target: 5-hydroxytryptamine receptor 2A (Rattus norvegicus, UniProt P14842); assay: Displacement of [3H]DOB binding to 5-hydroxytryptamine 2A receptor from rat cortex homogenate
# [2] = target: 5-hydroxytryptamine receptor 1D (Sus scrofa, UniProt P79400); assay: Displacement of [3H]5-HT binding to 5-hydroxytryptamine 1D receptor from pig caudate membrane
# Sequence of 5-hydroxytryptamine receptor 1D (P79400 whole entry): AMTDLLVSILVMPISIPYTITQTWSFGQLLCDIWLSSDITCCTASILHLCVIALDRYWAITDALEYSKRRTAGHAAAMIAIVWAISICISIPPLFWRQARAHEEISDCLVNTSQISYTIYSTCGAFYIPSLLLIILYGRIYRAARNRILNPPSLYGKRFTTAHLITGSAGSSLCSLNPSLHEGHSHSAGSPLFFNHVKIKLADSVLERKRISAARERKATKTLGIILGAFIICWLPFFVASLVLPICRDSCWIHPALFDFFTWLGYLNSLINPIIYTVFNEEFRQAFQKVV
# 5-HT1A receptor = 5-HT1A receptor (Sus scrofa, UniProt A0A4X1UTF5); assay: Displacement of [3H]8-OH-DPAT binding to 5-hydroxytryptamine 1A receptor from pig cortex
# Oryctolagus cuniculus [3] = organism: Oryctolagus cuniculus; assay: Ability to contract saphenous vein of New Zealand white rabbit; assay type: functional
# [4] = Partition coefficient at pH 7.4; assay type: physicochemical; details: octanol/water
# Oryctolagus cuniculus [5] = organism: Oryctolagus cuniculus; assay: Ability to contract saphenous vein of New Zealand white rabbit.; assay type: functional
# [6] = target: T1, Serotonin 3 (5-HT3) receptor (Rattus norvegicus, UniProt P35563+Q9JJ16); assay: Displacement of [3H]-Q-ICS 205-930 binding to 5-hydroxytryptamine 3 receptor from rat cortex homogenate
# T1 sequence (P35563 whole entry): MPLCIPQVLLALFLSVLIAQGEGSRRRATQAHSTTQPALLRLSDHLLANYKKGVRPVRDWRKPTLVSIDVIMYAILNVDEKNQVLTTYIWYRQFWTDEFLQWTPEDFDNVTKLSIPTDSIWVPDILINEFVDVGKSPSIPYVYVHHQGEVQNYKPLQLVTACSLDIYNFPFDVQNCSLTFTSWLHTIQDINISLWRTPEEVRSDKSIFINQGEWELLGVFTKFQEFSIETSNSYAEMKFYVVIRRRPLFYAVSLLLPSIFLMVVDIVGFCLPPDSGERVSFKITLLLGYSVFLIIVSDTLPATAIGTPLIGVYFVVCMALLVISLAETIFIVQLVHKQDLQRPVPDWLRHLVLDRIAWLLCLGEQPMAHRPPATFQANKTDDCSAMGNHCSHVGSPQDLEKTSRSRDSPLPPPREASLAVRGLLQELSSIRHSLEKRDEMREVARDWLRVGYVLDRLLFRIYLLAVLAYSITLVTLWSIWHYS
# T1 sequence (Q9JJ16 whole entry): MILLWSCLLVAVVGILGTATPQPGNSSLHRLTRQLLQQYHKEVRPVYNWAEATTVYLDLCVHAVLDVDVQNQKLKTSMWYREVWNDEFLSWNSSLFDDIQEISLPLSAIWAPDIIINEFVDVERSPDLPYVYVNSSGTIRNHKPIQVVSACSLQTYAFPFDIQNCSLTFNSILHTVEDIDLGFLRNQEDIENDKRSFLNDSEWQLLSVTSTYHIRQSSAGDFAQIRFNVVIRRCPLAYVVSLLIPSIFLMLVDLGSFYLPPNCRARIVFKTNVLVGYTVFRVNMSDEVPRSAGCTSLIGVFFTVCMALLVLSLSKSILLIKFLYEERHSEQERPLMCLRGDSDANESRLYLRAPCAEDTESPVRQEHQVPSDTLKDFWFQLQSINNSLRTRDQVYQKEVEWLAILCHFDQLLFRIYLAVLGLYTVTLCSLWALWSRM
# Sequence of 5-hydroxytryptamine receptor 2A (P14842 whole entry): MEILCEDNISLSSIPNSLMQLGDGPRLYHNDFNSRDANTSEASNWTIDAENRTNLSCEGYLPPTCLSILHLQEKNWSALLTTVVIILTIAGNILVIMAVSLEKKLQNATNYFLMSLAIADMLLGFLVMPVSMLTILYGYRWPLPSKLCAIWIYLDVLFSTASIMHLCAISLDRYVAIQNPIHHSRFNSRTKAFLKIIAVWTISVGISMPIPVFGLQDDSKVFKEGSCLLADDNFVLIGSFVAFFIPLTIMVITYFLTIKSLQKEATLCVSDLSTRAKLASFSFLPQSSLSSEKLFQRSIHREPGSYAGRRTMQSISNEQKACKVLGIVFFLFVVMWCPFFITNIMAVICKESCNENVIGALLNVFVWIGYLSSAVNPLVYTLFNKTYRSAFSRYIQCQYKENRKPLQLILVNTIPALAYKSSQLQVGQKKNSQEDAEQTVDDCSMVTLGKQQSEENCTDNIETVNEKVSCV
SMILES,IC50 [1] [nM],IC50 [2] [nM],IC50 (5-HT1A receptor) [nM],EC50 (Oryctolagus cuniculus [3]) [nM],logD [4],EC50 (Oryctolagus cuniculus [5]) [nM],IC50 [6] [nM]
CN(C)CCc1c[nH]c2ccc(N3CCN(Cc4ccccc4)S3(=O)=O)cc12,5010,20,79.4,,,,
CN(C)CCc1c[nH]c2ccc(CN3CCNS3(=O)=O)cc12,> 10000,100,794,2510,-0.97,,
CNCCc1c[nH]c2ccc(CN3CCN(C)S3(=O)=O)cc12,> 10000,100,794,,-1.71,2000,
CN(C)CCc1c[nH]c2ccc(CN3C(C)(C)CNS3(=O)=O)cc12,> 10000,200,1000,,-0.78,6310,
CN(C)CCc1c[nH]c2ccc(CN3CCN(C)S3(=O)=O)cc12,> 10000,63.1,794,631,-0.68,,> 10000
CN(C)CCc1c[nH]c2ccc(CCN3CCN(C)S3(=O)=O)cc12,2510,39.8,200,,-0.57,1580,
CC(=O)Nc1ccc(CN2CCN(Cc3ccc4[nH]cc(CCN(C)C)c4c3)S2(=O)=O)cc1,7940,20,200,,0.42,501,
CN(C)CCc1c[nH]c2ccc(CCN3CCNS3(=O)=O)cc12,5010,39.8,126,,,,
CN1CCN(Cc2ccc3[nH]cc(CCN)c3c2)S1(=O)=O,> 10000,316,631,,,,
CNS(=O)(=O)Cc1ccc2[nH]cc(CCN(C)C)c2c1,,,501,,,,> 10000
CN1CCN(Cc2ccc3scc(CCN)c3c2)S1(=O)=O,2000,398,2000,12600,,,
CC(C)N1CCN(Cc2ccc3[nH]cc(CCN(C)C)c3c2)S1(=O)=O,> 10000,100,501,,0.16,,
CN(C)CCc1c[nH]c2ccc(N3CCN(C)S3(=O)=O)cc12,> 10000,100,631,3160,-0.92,,
CN(C)CCc1c[nH]c2ccc(CN3CC(C)(C)NS3(=O)=O)cc12,> 10000,100,251,,-0.39,2510,
CCN1CCN(CCc2ccc3[nH]cc(CCN(C)C)c3c2)S1(=O)=O,2000,39.8,126,1580,,,
CN(C)CCc1c[nH]c2ccc(CN3CCCN(C)S3(=O)=O)cc12,> 10000,63.1,126,,-0.02,2510,> 10000
